# PubChem BioAssay (NCI)
#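 Tested at 5 concentrations; 48 h exposure; 96-well plates; endpoints linearly interpolated, else capped at highest concentration. The concentration for 50% growth inhibition is given as GI50. TGI denotes the concentration required for complete inhibition of growth.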
# How the values were obtained:
# Assay in all cases: inhibition of tumour cell growth, NCI panel, 48 h
# 786-0 renal = test system: 786-0 renal
# HCT-116 colon = test system: HCT-116 colon
# SR leukemia = test system: SR leukemia
# SK-MEL-2 melanoma = test system: SK-MEL-2 melanoma
# RPMI-8226 leukemia = test system: RPMI-8226 leukemia
# K-562 leukemia = test system: K-562 leukemia
# NCI-H23 lung = test system: NCI-H23 lung
# SNB-75 CNS = test system: SNB-75 CNS
# NCI/ADR-RES ovarian = test system: NCI/ADR-RES ovarian
# KM12 colon = test system: KM12 colon
# UACC-62 melanoma = test system: UACC-62 melanoma
# SNB-19 CNS = test system: SNB-19 CNS
# CAKI-1 renal = test system: CAKI-1 renal
# SF-539 CNS = test system: SF-539 CNS
# MDA-MB-231 breast = test system: MDA-MB-231 breast
# EKVX NSCLC = test system: EKVX NSCLC
# SF-295 CNS = test system: SF-295 CNS
# M14 melanoma = test system: M14 melanoma
# A549 NSCLC = test system: A549 NSCLC
# HCT-15 colon = test system: HCT-15 colon
# SK-MEL-28 melanoma = test system: SK-MEL-28 melanoma
# COLO 205 colon = test system: COLO 205 colon
# OVCAR-5 ovarian = test system: OVCAR-5 ovarian
# SF-268 CNS = test system: SF-268 CNS
# DU-145 prostate = test system: DU-145 prostate
# MCF7 breast = test system: MCF7 breast
# UACC-257 melanoma = test system: UACC-257 melanoma
# OVCAR-3 ovarian = test system: OVCAR-3 ovarian
# SK-MEL-5 melanoma = test system: SK-MEL-5 melanoma
# CCRF-CEM leukemia = test system: CCRF-CEM leukemia
# HL-60(TB) leukemia = test system: HL-60(TB) leukemia
# PC-3 prostate = test system: PC-3 prostate
# LOX IMVI melanoma = test system: LOX IMVI melanoma
# OVCAR-4 ovarian = test system: OVCAR-4 ovarian
# HCC-2998 colon = test system: HCC-2998 colon
# T-47D breast = test system: T-47D breast
# NCI-H226 lung = test system: NCI-H226 lung
# SW-620 colon = test system: SW-620 colon
# MOLT-4 leukemia = test system: MOLT-4 leukemia
# UO-31 renal = test system: UO-31 renal
# HT29 colon = test system: HT29 colon
# BT-549 breast = test system: BT-549 breast
# A498 renal = test system: A498 renal
# TK-10 renal = test system: TK-10 renal
# SK-OV-3 ovarian = test system: SK-OV-3 ovarian
# SN12C renal = test system: SN12C renal
# NCI-H460 lung = test system: NCI-H460 lung
# HOP-92 NSCLC = test system: HOP-92 NSCLC
# NCI-H522 lung = test system: NCI-H522 lung
# HS 578T breast = test system: HS 578T breast
# ACHN renal = test system: ACHN renal
# OVCAR-8 ovarian = test system: OVCAR-8 ovarian
# MALME-3M melanoma = test system: MALME-3M melanoma
# RXF 393 renal = test system: RXF 393 renal
# HOP-62 NSCLC = test system: HOP-62 NSCLC
# MDA-MB-435 = test system: MDA-MB-435
smiles,measurement,setting,value
COc1ccc2c(c1)C(=O)/C(=C/c1cccc(OCC(=O)Nc3nc(C)c(C)s3)c1)O2,GI50,786-0 renal,23.8 nM
same,TGI,786-0 renal,54.5 nM
same,GI50,HCT-116 colon,170 nM
same,TGI,HCT-116 colon,564 nM
same,GI50,SR leukemia,18.4 nM
same,TGI,SR leukemia,36.4 nM
same,GI50,SK-MEL-2 melanoma,19.9 nM
same,TGI,SK-MEL-2 melanoma,47 nM
same,GI50,RPMI-8226 leukemia,104 nM
same,TGI,RPMI-8226 leukemia,587 nM
same,GI50,K-562 leukemia,240 nM
same,GI50,NCI-H23 lung,54.7 nM
same,TGI,NCI-H23 lung,715 nM
same,GI50,SNB-75 CNS,11.5 nM
same,TGI,SNB-75 CNS,37 nM
same,GI50,NCI/ADR-RES ovarian,3760 nM
same,TGI,NCI/ADR-RES ovarian,29600 nM
same,GI50,KM12 colon,75 nM
same,TGI,KM12 colon,2620 nM
same,GI50,UACC-62 melanoma,1970 nM
same,TGI,UACC-62 melanoma,7980 nM
same,GI50,SNB-19 CNS,12200 nM
same,TGI,SNB-19 CNS,25700 nM
same,GI50,CAKI-1 renal,271 nM
same,TGI,CAKI-1 renal,1160 nM
same,GI50,SF-539 CNS,52 nM
same,TGI,SF-539 CNS,96.5 nM
same,GI50,MDA-MB-231 breast,121 nM
same,TGI,MDA-MB-231 breast,738 nM
same,GI50,EKVX NSCLC,677 nM
same,TGI,EKVX NSCLC,15300 nM
same,GI50,SF-295 CNS,12700 nM
same,TGI,SF-295 CNS,26300 nM
same,GI50,M14 melanoma,187 nM
same,TGI,M14 melanoma,426 nM
same,GI50,A549 NSCLC,190 nM
same,TGI,A549 NSCLC,2410 nM
same,GI50,HCT-15 colon,1340 nM
same,TGI,HCT-15 colon,2980 nM
same,GI50,SK-MEL-28 melanoma,504 nM
same,TGI,SK-MEL-28 melanoma,1720 nM
same,GI50,COLO 205 colon,752 nM
same,TGI,COLO 205 colon,2480 nM
same,GI50,OVCAR-5 ovarian,205 nM
same,TGI,OVCAR-5 ovarian,1140 nM
same,GI50,SF-268 CNS,28.1 nM
same,TGI,SF-268 CNS,74.3 nM
same,GI50,DU-145 prostate,121 nM
same,TGI,DU-145 prostate,670 nM
same,GI50,MCF7 breast,1630 nM
same,TGI,MCF7 breast,3480 nM
same,GI50,UACC-257 melanoma,12800 nM
same,TGI,UACC-257 melanoma,26300 nM
same,GI50,OVCAR-3 ovarian,17.9 nM
same,TGI,OVCAR-3 ovarian,36.6 nM
same,GI50,SK-MEL-5 melanoma,886 nM
same,TGI,SK-MEL-5 melanoma,2810 nM
same,GI50,CCRF-CEM leukemia,16.8 nM
same,TGI,CCRF-CEM leukemia,33.7 nM
same,GI50,HL-60(TB) leukemia,44.4 nM
same,TGI,HL-60(TB) leukemia,175 nM
same,GI50,PC-3 prostate,41.7 nM
same,TGI,PC-3 prostate,226 nM
same,GI50,LOX IMVI melanoma,< 12.7 nM
same,TGI,LOX IMVI melanoma,< 17.8 nM
same,GI50,OVCAR-4 ovarian,2030 nM
same,TGI,OVCAR-4 ovarian,6910 nM
same,GI50,HCC-2998 colon,1530 nM
same,TGI,HCC-2998 colon,3540 nM
same,GI50,T-47D breast,1990 nM
same,TGI,T-47D breast,4650 nM
same,GI50,NCI-H226 lung,1850 nM
same,TGI,NCI-H226 lung,5270 nM
same,GI50,SW-620 colon,499 nM
same,TGI,SW-620 colon,1860 nM
same,GI50,MOLT-4 leukemia,155 nM
same,TGI,MOLT-4 leukemia,369 nM
same,GI50,UO-31 renal,22.2 nM
same,TGI,UO-31 renal,37.8 nM
same,GI50,HT29 colon,30.2 nM
same,TGI,HT29 colon,111 nM
same,GI50,BT-549 breast,2370 nM
same,TGI,BT-549 breast,7630 nM
same,GI50,A498 renal,1750 nM
same,TGI,A498 renal,10700 nM
same,GI50,TK-10 renal,1030 nM
same,TGI,TK-10 renal,2800 nM
same,GI50,SK-OV-3 ovarian,12800 nM
same,TGI,SK-OV-3 ovarian,25600 nM
same,GI50,SN12C renal,171 nM
same,TGI,SN12C renal,2660 nM
same,GI50,NCI-H460 lung,2710 nM
same,TGI,NCI-H460 lung,8490 nM
same,GI50,HOP-92 NSCLC,18.6 nM
same,TGI,HOP-92 NSCLC,56.2 nM
same,GI50,NCI-H522 lung,51.7 nM
same,TGI,NCI-H522 lung,107 nM
same,GI50,HS 578T breast,2940 nM
same,GI50,ACHN renal,139 nM
same,TGI,ACHN renal,779 nM
same,GI50,OVCAR-8 ovarian,647 nM
same,TGI,OVCAR-8 ovarian,12900 nM
same,GI50,MALME-3M melanoma,322 nM
same,TGI,MALME-3M melanoma,1030 nM
same,GI50,RXF 393 renal,21.4 nM
same,TGI,RXF 393 renal,41.8 nM
same,GI50,HOP-62 NSCLC,10.7 nM
same,TGI,HOP-62 NSCLC,23.8 nM
same,GI50,MDA-MB-435,2950 nM
same,TGI,MDA-MB-435,13300 nM
